Earlier results, collected in patent US7887848B2, “Nutraceutical treatments for diabetic and non-diabetic wound healing” (Interhealth Nutraceuticals, Inc., priority 2006, dated 2011).

SMILES: OO [H2O2]
- beneficial effect on wounds (H2O2 at strength of 3%): no beneficial effect
- dermal wound healing (topical H2O2 (Roy et al. 2006)): facilitates dermal wound healing
